Measurements from US9861601B2 (The Board of Trustees of the Leland Stanford Junior …, priority 2012, dated 2018).
Entries after “also recorded” stand apart in the source; their conditions may differ.

Key:
[1] = target: T1, Recombinant human LTA4H (Homo sapiens, UniProt P09960); assay: In vitro epoxide hydrolase activity assay (LTB4 EIA readout); assay type: biochemical; details: LTA4 substrate 0.13 μM
T1 sequence (P09960 1-611): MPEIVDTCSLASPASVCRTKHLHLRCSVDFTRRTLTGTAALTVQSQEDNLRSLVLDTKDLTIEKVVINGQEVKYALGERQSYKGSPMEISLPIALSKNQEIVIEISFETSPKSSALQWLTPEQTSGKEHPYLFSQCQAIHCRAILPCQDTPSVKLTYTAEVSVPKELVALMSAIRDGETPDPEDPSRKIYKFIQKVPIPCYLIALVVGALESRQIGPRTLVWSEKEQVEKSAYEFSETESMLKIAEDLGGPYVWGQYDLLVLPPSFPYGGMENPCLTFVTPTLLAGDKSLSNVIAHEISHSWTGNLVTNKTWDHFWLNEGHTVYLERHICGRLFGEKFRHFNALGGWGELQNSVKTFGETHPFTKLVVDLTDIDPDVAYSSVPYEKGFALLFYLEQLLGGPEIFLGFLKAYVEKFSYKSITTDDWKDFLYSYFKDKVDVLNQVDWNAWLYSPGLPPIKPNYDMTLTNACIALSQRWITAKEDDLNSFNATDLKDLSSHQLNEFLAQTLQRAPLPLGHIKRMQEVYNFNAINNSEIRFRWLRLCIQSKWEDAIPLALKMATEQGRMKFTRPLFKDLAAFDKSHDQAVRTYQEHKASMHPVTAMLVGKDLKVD
Description: The LTA4H inhibitory activity of certain compounds in this invention was measured using an in vitro epoxide hydrolase activity assay. In this assay, an LTA4 substrate was first prepared from the methyl ester of LTA4 (Cayman Chemical), which was treated under nitrogen with […] of NaOH, at room temperature, for 40 min. The LTA4 substrate in its free acid form was kept frozen at −80° C. until use. Recombinant human LTA4H (36 ng) was incubated with various concentrations of test compounds for 10 min. at room temperature in assay buffer (0.1 M potassium phosphate, pH 7.4, 5 mg/ml fatty acid-free bovine serum albumin) in a volume of 200 μl. Then, the mixture was incubated with 25 μl of LTA4 substrate (final concentration, 40 ng/ml, 0.13 μM; final volume, 225 μl) for 30 min. at room temperature. The assay was terminated by diluting 20-fold with assay buffer. LTB4 production from each reaction was then assayed using the LTB4 EIA kit (catalog no. 520111, Cayman Chemical). The concentration of compound required for half-maximal inhibition of recombinant enzyme activity (IC50) was calculated by nonlinear regression using GraphPad Prism 4.0 (GraphPad Software Inc), one-site binding competition.

[2] = tested on: athymic rat model of PAH; assay: SU5416 athymic nude rat model of PAH (PH); assay type: in vivo; details: for reversal of established PH / PH-related death: treatment started 21 days (3 wk) after SU5416, doses as in b355, assessed at wk 5
Description: In the model, PH was first initiated by a single injection of a VEGFR2 inhibitor, SU5416, and monitored by weekly echocardiography. Survival of the animals was recorded on daily basis. […] After 5 weeks (day 35), animals were sacrificed after right heart catheterization. […] Oral availability of ubenimex was determined by pharmacokinetic analysis.
The athymic nude rat model is an accepted model of severe PAH associated with immune dysregulation. Athymic nude rats (rnu/rnu) (Charles River Laboratories) were used for these studies. Six to eight week old animals were injected subcutaneously (s.c.) with a single dose of either SU5416 (SU) (10 mg/kg) dissolved in DMSO or DMSO (vehicle) alone. All animals were maintained in normoxic conditions. PH progression was monitored by weekly echocardiography (ECHO). Survival of rats was monitored out to wk 5 when they underwent a terminal right heart catheterization. PH was confirmed by ECHO. Hemodynamic measurements included right ventricular systolic pressure (RVSP) determined by right heart catheterization and right ventricular hypertrophy (RVH) determined by the weight ratio of RV/(LV+S) (right ventricle/(left ventricle+septum)).
All animals were sacrificed 5 wk after SU administration for hemodynamic measurements. […] Serial improvement was observed from the time of treatment initiation. Interval improvement was manifested by decreasing RV wall thickness and increasing pulmonary artery acceleration times (PAAT) after initiation of treatment. […] Here again, the compound of Formula III was notable: treatment with that compound yielded an RVH ratio of 0.29. RVH for healthy rats is generally about 0.25.

[3] = tested on: Rat pulmonary arterial endothelial cells (PAECs); assay: PAEC apoptosis assay (Annexin V flow cytometry, with or without macrophage co-culture); assay type: cell-based; details: for PAEC apoptosis induced by exogenous leukotriene (no macrophages): 24 hrs
Description: The transwell assay involved co-culturing IMØs from several sources with PAECs. IMØs, from (A) DMSO and (B) SU rat lungs, were isolated and co-cultured with PAECs. After 24 hr, PAEC apoptosis was analyzed by flow cytometry for Annexin V expression. To isolate the specific impact of LTB4 generated by 5-LO activation further, IMØs were extracted from healthy rats and transfected with S271E to produce a phosphorylation mimic mutant or with S271A to produce a dephosphorylation mimic mutant. Vector and WT 5-LO DNA-transfected IMØs were used as controls. Flow cytometry was performed on PAECs co-cultured with IMØs extracted from healthy rats and transfected with (C) vector as control, (D) WT 5-LO, (E) S271A, (F) S271E (G) S271E mutant treated with n-acetyl cysteine (NAC) (200 nM) or (H) S271A mutant treated with LTB4 (100 nM). PAECs were treated with (I) exogenous LTB4 (200 nM) or (J) LTB4 (200 nM) with a BLT1 inhibitor U75302 […] (n=3 experiments per group). Representative flow cytometry plots are shown, n=3 experiments per group.
The results reported in this example were obtained using the following PAEC apoptosis assay. Rat pulmonary arterial endothelial cells (PAECs) were co-cultured with macrophages (+/− transfection) for 24 hr. They were then washed once with PBS and once with binding buffer from the Annexin V Apoptosis Detection Kit (88-8007; eBioscience). Cells were then suspended in binding buffer at 1-5×10^6/ml. 5 μl of APC conjugated Annexin V was added to 100 μl of cells, which were then incubated at room temperature for 15 min. Five μl of propidium iodide staining solution were added 5 min. prior to flow cytometry analysis on an LSRFortessa cell analyzer (BD Biosciences).

[4] = tested on: human primary pulmonary arterial smooth muscle cell (hPASMC); assay: hPASMC proliferation (MTT) and hypertrophy (protein/DNA ratio) assay; assay type: cell-based; details: 24 hr
Description: An in vitro toxicology assay kit (#M-5655, #8910, Sigma) was used to measure the number of viable hPASMC after LTB4 treatment. Briefly, hPASMCs were plated in a 96 well plate one day before treatment. Cells were treated with 200 nM or 400 nM LTB4 for 24 hr. On the day of assay, growing medium was first removed from the cells, then 20 μL of 12 mM MTT ((3-(4,5-Dimethylthiazol-2-yl)-2,5-diphenyltetrazolium bromide, a yellow tetrazole)) stock solution were then added to each well. After incubation at 37 degrees C. for 4 hr, 200 μL MTT dissolution solution (10% Triton X-100 plus 0.1 N HCl in anhydrous isopropanol) were added to each well. Relative optical density, which was used as a parameter for proliferation, was calculated by subtracting the absorbance at 690 nm from that at 570 nm. Cellular hypertrophy was determined by protein/DNA ratio. hPASMCs were seeded on 6 well plates. Cells were treated with 200 nM or 400 nM LTB4 for 24 hr. hPASMCs were then collected and divided into to two. For one part of each sample, a BCA protein assay kit (#23227, Thermo Scientific) was used to determined the total protein amount. DNA was purified from the other part of the sample using a Miniprep kit (QIAGEN). DNA concentration was then measured by nanodrop.

[5] = patients with PAH; cited from earlier work

## CC(=O)N[C@H](Cc1ccc(O)cc1)[C@H](OC(C)=O)C(=O)N[C@@H](CC(C)C)C(=O)O
[1]
  IC50: 43 ± 11 nM

## CC(=O)N[C@H](Cc1ccc(O)cc1)[C@H](O)C(=O)N[C@@H](CC(C)C)C(=O)O
[1]
  IC50: 13 ± 4 nM

## CC(C)C[C@H](NC(=O)[C@@H](O)[C@H](N)Cc1ccc(Oc2nc3ccccc3s2)cc1)C(=O)O [Formula III, (S)-2-((2S,3R)-3-amino-4-(4-(benzo[d]thiazol-2-yloxy)phenyl)-2-hydroxybutanamido)-4-methylpentanoic acid]
[2]; 1 mg/kg p.o. daily, sacrificed 5 wk after SU
  RVSP: 28 mm Hg
[2]; 1 mg/kg p.o. daily, sacrificed 5 wk after SU, RV/(LV+S)
  RVH ratio: 0.29
[1]
  IC50: 10 ± 5 nM

## O=C(O)C1CCN(Cc2ccc(Oc3nc4ccccc4s3)cc2)CC1 [JNJ26993135, 1-[4-(benzothiazol-2-yloxy)-benzyl]-piperidine-4-carboxylic acid]
[2]; SU-treated athymic rats
  accumulation of 5-LO expressing periarteriolar macrophages and B cells in lungs: significantly reduced
  in vivo PAEC apoptosis: reduced
[2]
  reversal of established PH / PH-related death: efficacious in reversing severe PH and preventing PH-related death; also recorded: reverses established PH

## CCCCC/C=C\C[C@@H](O)/C=C/C=C/C=C\[C@@H](O)CCCC(=O)O [LTB4, leukotriene B4]
[3]
  PAEC apoptosis induced by exogenous leukotriene (no macrophages): significant apoptosis
[3]; exogenous LTB4 (100 nM)
  PAEC apoptosis in co-culture with S271A transfected macrophages: caused apoptosis
[4]; 200 nM or 400 nM
  cellular hypertrophy (protein/DNA ratio): increased in a similar pattern
[4]; 200 nM
  number of PASMC versus negative control group: 1.8 fold
[4]; 400 nM
  number of PASMC versus negative control group: two fold more

## CCCCC/C=C\C\C=C/C=C/C=C/[C@@H](SC[C@H](NC(=O)CC[C@H](N)C(=O)O)C(=O)NCC(=O)O)[C@@H](O)CCCC(=O)O [LTC4, leukotriene C4]
[3]
  PAEC apoptosis induced by exogenous leukotriene (no macrophages): did not induce PAEC apoptosis

## CCCCC/C=C\C\C=C/C=C/C=C/[C@@H](SC[C@H](N)C(=O)NCC(=O)O)[C@@H](O)CCCC(=O)O [LTD4, leukotriene D4]
[3]
  PAEC apoptosis induced by exogenous leukotriene (no macrophages): did not induce PAEC apoptosis

## CCCCC/C=C\C\C=C/C=C/C=C/[C@@H](SC[C@H](N)C(=O)O)[C@@H](O)CCCC(=O)O [LTE4, leukotriene E4]
[3]
  PAEC apoptosis induced by exogenous leukotriene (no macrophages): did not induce PAEC apoptosis

## CCCCCCCCCCCCC/C=C/[C@@H](O)[C@@H](N)COP(=O)(O)O [SIP, sphingosine-1-phosphate]
[3]; exogenously added
  rescue of PAECs co-cultured with S271E cells: able to rescue

## CN1CC(=O)N2[C@H](c3ccc4c(c3)OCO4)c3[nH]c4ccccc4c3C[C@@H]2C1=O [Tadalafil]
[5]
  half-life: 35 h

## CCCCC/C=C\C[C@@H](O)/C=C/c1cccc(C[C@@H](O)CCCCO)n1 [U75302]
[3]; LTB4 (200 nM) with U75302, 24 hr
  LTB4-mediated PAEC apoptosis: prevented LTB4-mediated apoptosis

## CC(=O)Oc1ccccc1C(=O)O [aspirin]
[2]
  reversal of established PH / PH-related death: relatively less therapeutic

## COC(=O)[C@H](CC(C)C)NC(=O)[C@@H](OC(C)=O)[C@@H](Cc1ccc(Br)cc1)NC(C)=O [di-acyl ubenimex bromide, (S)-methyl 2-((2S,3R)-3-acetamido-2-acetoxy-4-(4-bromophenyl)butanamido)-4-methylpentanoate]
[1]
  IC50: 40 ± 22 nM

## COC(=O)[C@H](CC(C)C)NC(=O)[C@@H](OC(C)=O)[C@@H](Cc1ccccc1)NC(C)=O [di-acyl ubenimex, (S)-methyl 2-((2S,3R)-3-acetamido-2-acetoxy-4-phenylbutanamido)-4-methylpentanoate]
[1]
  IC50: 25 ± 18 nM

## O=C(NC1CCCCC1)NC1CCCCC1 [dicyclohexyl urea]
[2]
  reversal of established PH / PH-related death: relatively less therapeutic

## COC(=O)[C@H](CC(C)C)NC(=O)[C@@H](O)[C@@H](Cc1ccccc1)NC(C)=O [mono-acryl ubenimex, (S)-methyl 2-((2S,3R)-3-acetamido-2-hydroxy-4-phenylbutanamido)-4-methylpentanoate]
[1]
  IC50: 94 ± 21 nM

## COC(=O)[C@H](CC(C)C)NC(=O)[C@@H](O)[C@@H](Cc1ccc(Br)cc1)NC(C)=O [mono-acyl ubenimex bromide, (S)-methyl 2-((2S,3R)-3-acetamido-4-(4-bromophenyl)-2-hydroxybutanamido)-4-methylpentanoate]
[1]
  IC50: 93 ± 16 nM

## CC(=O)N[C@@H](CS)C(=O)O [n-acetyl cysteine]
[3]; NAC (200 nM)
  PAEC apoptosis in co-culture with S271E mutant macrophages: no diminution of apoptosis

## Oc1ccc(C=Cc2cc(O)cc(O)c2)cc1 [resveratrol]
[2]
  reversal of established PH / PH-related death: did not attenuate PH or improve survival

## COC(=O)[C@H](CC(C)C)NC(=O)[C@@H](O)[C@H](N)Cc1ccccc1 [ubenimex methy ester, (S)-methyl 2-((2S,3R)-3-amino-2-hydroxy-4-phenylbutanamido)-4-methylpentanoate]
[1]
  IC50: 54 ± 13 nM

## CC(c1cc2ccccc2s1)N(O)C(N)=O (centres unmarked) [zileuton, 1-[1-(1-benzothiophen-2-yl)ethyl]-1-hydroxyurea]
[2]
  reversal of established PH / PH-related death: mildly attenuated pressures and prevented death
